Usually IC50 stands for the concentration that inhibits the measured activity by half. A higher IC50 goes with a need for much substance.

Data on 15 molecules can be found in ChEMBL document CHEMBL1126321, “Antitumor agents. 123. Synthesis and human DNA topoisomerase II inhibitory activity of 2'-chloro derivatives of etoposide and 4 beta-(arylamino)-4'-O-demethylpodophyllotoxins” (J Med Chem, 1992).

The structures appear in SMILES notation.

One test relates to Nucleic Acid. Nature of the test: Effect on cellular protein DNA complex formation(%) at 10 uM in comparison with etoposide. It counts as functional.
Test [1] in a line: Concentration required for 50% reduction in KB cell number after 3-day incubation. It counts as functional, cell-based, Homo sapiens.
Test [2] addresses T1, DNA topoisomerase II (Homo sapiens) (UniProt P11388+Q02880). Nature of the test: Evaluated for the inhibition of human DNA Topoisomerase II. It counts as protein assay.
The target of test [3] is T1, DNA topoisomerase II (Homo sapiens). Description: Compound was evaluated for the inhibition of human DNA Topoisomerase II. It is filed as protein assay.

Turning to `COc1cc([C@@H]2c3cc4c(cc3[C@@H](Nc3ccc([N+](=O)[O-])cc3)[C@H]3COC(=O)[C@H]23)OCO4)cc(OC)c1O`, in the test on Nucleic Acid, the Complex formation was 323%. The molecule also yielded an IC50 in test [1] of 0.49 µM.

Regarding `COc1cc([C@@H]2c3cc4c(cc3[C@@H](Nc3cccc([N+](=O)[O-])c3)[C@H]3COC(=O)[C@H]23)OCO4)c(Cl)c(OC)c1O`, in the test on Nucleic Acid, the Complex formation came out at 0%. For the same molecule, in test [2], the ID50 was over 100 µM. This molecule registered a half-inhibitory concentration (IC50) in test [1] of over 7.2 µM.

Regarding `COc1cc([C@@H]2c3cc4c(cc3[C@@H](Nc3ccc(Br)cc3)[C@H]3COC(=O)[C@H]23)OCO4)c(Cl)c(OC)c1O`, the Complex formation in the test on Nucleic Acid came out at 0%. Besides, in test [2], the ID50 was over 100 µM. For the same molecule, in test [1], the IC50 is over 6.8 µM.

In the case of `COc1cc([C@@H]2c3cc4c(cc3[C@@H](Nc3ccc(F)cc3)[C@H]3COC(=O)[C@H]23)OCO4)c(Cl)c(OC)c1O`, in the test on Nucleic Acid, the Complex formation worked out at 0%. Further, the ID50 in test [2] was over 100 µM. Further, in test [1], the IC50 is over 7.5 µM.

For `COc1cc([C@@H]2c3cc4c(cc3[C@@H](O)[C@H]3COC(=O)[C@H]23)OCO4)c(Cl)c(OC)c1O`, in the test with Nucleic Acid, the Complex formation stood at 15.6%. In test [2], the ID50 was over 50 µM. In test [1], the IC50 was over 22.3 µM.

Molecule `COc1cc([C@@H]2c3cc4c(cc3[C@@H](Nc3ccc5c(c3)OCO5)[C@H]3COC(=O)[C@H]23)OCO4)cc(OC)c1O` yielded a Complex formation with Nucleic Acid of 279%. The same molecule displayed an ID50 in test [2] of 10 µM. Further, the IC50 in test [1] worked out at 0.68 µM.

In turn, `COc1cc([C@@H]2c3cc4c(cc3[C@@H](Nc3ccc(F)cc3)[C@H]3COC(=O)[C@H]23)OCO4)cc(OC)c1O` displayed a Complex formation in the test on Nucleic Acid of 213%. Besides, the IC50 in test [1] was 0.24 µM.

Regarding `COc1cc([C@@H]2c3cc4c(cc3[C@@H](Nc3ccc5c(c3)OCCO5)[C@H]3COC(=O)[C@H]23)OCO4)c(Cl)c(OC)c1O`, in the test on Nucleic Acid, the Complex formation was found to be 0%. Besides, the ID50 in test [2] was over 100 µM. In test [1], this molecule had an IC50 of over 7 µM.

In the test with Nucleic Acid, `COc1cc([C@@H]2c3cc4c(cc3[C@@H](O[C@@H]3O[C@@H]5CO[C@@H](C)O[C@H]5[C@H](O)[C@H]3O)[C@H]3COC(=O)[C@H]23)OCO4)cc(OC)c1O` [ETOPOSIDE] registered a Complex formation of 100%. The IC50 in test [1] is 0.2 µM.

`COc1cc([C@@H]2c3cc4c(cc3[C@@H](O[C@@H]3O[C@@H]5CO[C@@H](C)O[C@H]5[C@H](O)[C@H]3O)[C@H]3COC(=O)[C@H]23)OCO4)c(Cl)c(OC)c1O` displayed a Complex formation in the test on Nucleic Acid of 6.1%. Besides, in test [2], the ID50 is over 50 µM. In test [1], this molecule registered an IC50 of over 6.4 µM.

As for `COc1cc([C@@H]2c3cc4c(cc3[C@@H](Nc3cccc(O)c3)[C@H]3COC(=O)[C@H]23)OCO4)c(Cl)c(OC)c1O`, the Complex formation in the test on Nucleic Acid turned out to be 0%. In addition, the ID50 in test [2] was over 100 µM. In addition, in test [1], the IC50 is 5.7 µM.

`COc1cc([C@@H]2c3cc4c(cc3[C@@H](Nc3cccc(O)c3)[C@H]3COC(=O)[C@H]23)OCO4)cc(OC)c1O` registered a Complex formation in the test on Nucleic Acid of 290%. For the same molecule, inhibition in test [1] was half-maximal at 0.45 µM (IC50).

As for `COc1cc([C@@H]2c3cc4c(cc3[C@@H](Nc3ccc(Cl)cc3)[C@H]3COC(=O)[C@H]23)OCO4)c(Cl)c(OC)c1O`, the Complex formation in the test on Nucleic Acid is 0%. Moreover, the ID50 in test [2] is over 100 µM. In test [1], this molecule showed an IC50 of over 7.3 µM.

On to `COc1cc([C@@H]2c3cc4c(cc3[C@@H](Nc3ccc([N+](=O)[O-])cc3)[C@H]3COC(=O)[C@H]23)OCO4)c(Cl)c(OC)c1O`, for which the ID50 in test [3] is over 100 µM. Besides, the Complex formation in the test on Nucleic Acid was 0%. The molecule further returned an IC50 in test [1] of over 7.2 µM.

The molecule `COc1cc([C@@H]2c3cc4c(cc3[C@@H](Nc3ccc5c(c3)OCO5)[C@H]3COC(=O)[C@H]23)OCO4)c(Cl)c(OC)c1O` showed a Complex formation with Nucleic Acid of 0%. In test [2], this molecule registered an ID50 of over 100 µM. In test [1], the IC50 is over 7.2 µM.
